Measurements reported in publication PMC10318456, “Selective inhibitors of the PSEN1–gamma-secretase complex” (The Journal of Biological Chemistry, 2023).
Several values for one entry are separate records, joined by “and”; a condition that tells them apart may be missing. Identical values can stand only once. Like-named read-outs stand apart in the source and are kept apart here. Values belong to the molecule of their own block, whether it stands above or below them.

What was measured:
[1] = biological target: T1, PSEN1-APH1A γ-secretase complex (Homo sapiens, UniProt P49768); assay: Aβ40 secretion by MEF cell line expressing only PSEN1-APH1A γ-secretase (APP-C99-GFP reporter); assay type: cell-based
T1 construct: expressed in transfected cells; host or cells: Psen1/2 double KO/Aph1ABC triple KO MEFs, pMSCV retroviral PSEN-IRES-APH1
From the text: (§1) Mouse embryonic fibroblast (MEF) cells deficient for the Psen and Aph1 genes (Psen1/2^−/−, Aph1ABC^−/−) were reconstituted with human PSEN1 or PSEN2 and with human APH1A or APH1B to generate four independent cell lines, each constitutively expressing exclusively one type of γ-secretase complex (Fig. S1A) ([19]). A human APP-C99-GFP reporter was introduced to enable the measurement of Aβ peptides in the conditioned media of the cells to monitor γ-secretase activity. The assay was established in a 96-well format.
(§2) Conditional Psen1/2 double KO mice were crossed with conditional Aph1ABC triple KO mice ([29], [52], [58], [59]). At embryonic day 7.5, embryos were dissected and dissociated, and cells were plated in the presence of Dulbecco’s modified Eagle’s medium (DMEM)/F12 50% fetal calf serum (FCS) (Invitrogen). Primary MEFs were immortalized by transduction with LargeT antigen. Psen1/2 double KO/Aph1ABC triple KO MEFs were generated by transduction with a Cre-GFP–expressing adenoviral vector, and GFP-positive MEFs were sorted by fluorescence-activated cell sorting analysis. Psen1/2 Aph1ABC-deficient MEFs were maintained in DMEM/f12 10% FCS. To rescue γ-secretase expression, Psen1/2 double KO/Aph1ABC triple KO MEFs were transduced using Murine Stem Cell Virus retroviral vector system (pMSCV) viral vectors (Clontech) containing the human coding sequences of the different PSEN and APH1 homologs and the zeocin selection marker. An Internal Ribosome Entry Site sequence was cloned between the coding sequences for PSEN and APH1 to ensure co-expression of both proteins. Stable transfected cell lines were selected using 500-μg/ml zeocin (Invitrogen). Four different combinations were made: PSEN1 and APH1AL, PSEN1 and APH1B, PSEN2 and APH1AL, and PSEN2 and APH1B. These cell lines were transduced with pMSCV viral vectors (Clontech) expressing APP-C99-GFP-puromycin. After puromycin selection (5 μg/ml), GFP-positive cells were selected through FACS sorting. For the alanine mutagenesis experiment, pMSCV PSEN1-APH1A viral vectors were generated by using a long PCR-based QuikChange strategy (Stratagene). Stable cell lines without clonal selection were generated for each mutant as described above. All cell lines were regularly tested for the absence of mycoplasma and used for maximum 20 passages in culture.
(§3) The number of plated cells and incubation times were determined in respect to linearity of Aβ peptide secretion, the dynamic range of Aβ peptide quantification in the medium, and sensitivity to dimethylsulfoxide (DMSO). […] The cell viability was assessed using the CellTiter-Glo Luminescent assay (Promega) that measures ATP production. […]

[2] = biological target: T2, PSEN1-APH1B γ-secretase complex (Homo sapiens, UniProt P49768); assay: Aβ40 secretion by MEF cell line expressing only PSEN1-APH1B γ-secretase (APP-C99-GFP reporter); assay type: cell-based
T2 construct: expressed in transfected cells; host or cells: Psen1/2 double KO/Aph1ABC triple KO MEFs, pMSCV retroviral PSEN-IRES-APH1
From the text: as §1, §2
(§4) The number of plated cells and incubation times were determined in respect to linearity of Aβ peptide secretion, the dynamic range of Aβ peptide quantification in the medium, and sensitivity to dimethylsulfoxide (DMSO). […] MEF cells were plated in DMEM F12 supplemented with 10% FCS at 10,000 cells per well in 96-well clear bottom plates in the late afternoon and cultured for 16 h at 37 °C, 5% CO2. In the morning of the second day, the medium was replaced with 60 μl of DMEM/F12 supplemented with 2% FCS, and GSI or DMSO (controls) were added. Compounds were tested in serial dilutions with concentrations ranging from […] to 0.1 nM with 3-fold changes. The final concentration of DMSO in all wells was 0.2%. Plates were put in the incubator again at 37 °C, 5% CO2. After 8 h, the culture media were collected, and 30 μl was used to measure Aβ40 peptides. The cell viability was assessed using the CellTiter-Glo Luminescent assay (Promega) that measures ATP production. All screens were performed at one site, and reported IC50 values throughout the manuscript are from this site (Beerse) unless otherwise indicated.
Standard 96-well SECTOR plates (MSD) were coated with 1.5 μg/ml anti-Aβ JRFcAβ40/28 capture antibody in a final volume of 50 μl of PBS 0.05% Tween 20.

[3] = biological target: T3, PSEN2-APH1A γ-secretase complex (Homo sapiens, UniProt P49810); assay: Aβ40 secretion by MEF cell line expressing only PSEN2-APH1A γ-secretase (APP-C99-GFP reporter); assay type: cell-based; conditions: only the 95% CI is given
T3 construct: expressed in transfected cells; host or cells: Psen1/2 double KO/Aph1ABC triple KO MEFs, pMSCV retroviral PSEN-IRES-APH1
From the text: as §1
as §2, with “Four different combinations were made: PSEN1 and APH1AL, PSEN1 and APH1B, PSEN2 and APH1AL, and PSEN2 and APH1B. These cell lines were transduced with pMSCV viral vectors (Clontech) expressing APP-C99-GFP-puromycin. After puromycin selection (5 μg/ml), GFP-positive cells were selected through FACS sorting. For the alanine mutagenesis experiment, pMSCV PSEN1-APH1A viral vectors were generated by using a long PCR-based QuikChange strategy (Stratagene). Stable cell lines without clonal selection were generated for each mutant as described above. All cell lines were regularly tested for the absence of mycoplasma and used for maximum 20 passages in culture.” left out
as §3

[4] = biological target: T4, PSEN2-APH1B γ-secretase complex (Homo sapiens, UniProt P49810); assay: Aβ40 secretion by MEF cell line expressing only PSEN2-APH1B γ-secretase (APP-C99-GFP reporter); assay type: cell-based; conditions: only the 95% CI is given
T4 construct: expressed in transfected cells; host or cells: Psen1/2 double KO/Aph1ABC triple KO MEFs, pMSCV retroviral PSEN-IRES-APH1
From the text: as §1
(§5) Conditional Psen1/2 double KO mice were crossed with conditional Aph1ABC triple KO mice ([29], [52], [58], [59]). At embryonic day 7.5, embryos were dissected and dissociated, and cells were plated in the presence of Dulbecco’s modified Eagle’s medium (DMEM)/F12 50% fetal calf serum (FCS) (Invitrogen). […] Psen1/2 double KO/Aph1ABC triple KO MEFs were generated by transduction with a Cre-GFP–expressing adenoviral vector, and GFP-positive MEFs were sorted by fluorescence-activated cell sorting analysis. […]
as §3

[5] = tested on: PSEN1 versus PSEN2 γ-secretase complexes; assay: Comparison of the four MEF cell lines: selectivity between γ-secretase complexes (IC50 ratios); assay type: cell-based, human; conditions: for selectivity for PSEN1 complexes versus PSEN2 complexes: IC50 ratios of PSEN1 versus PSEN2, MEF cell lines
From the text: as §1
GraphPad Prism 7 software was used to generate inhibition fitting curves (four-parameter logistic equation, nonlinear regression) and to determine IC50 and 95% CI values (Fig. S2). Selectivity values (IC50 ratios of PSEN1 versus PSEN2) above 10 are highlighted in red.
as §4
GraphPad Prism 7 software (https://www.graphpad.com) was used to generate inhibition fitting curves (four-parameter logistic equation, nonlinear regression) and to determine IC50 values and 95% CI.

[6] = biological target: T5, PSEN2-APH1A γ-secretase complex (Homo sapiens, UniProt P49810+Q92542+Q96BI3+Q9NZ42); assay: Aβ40 secretion by MEF cell line expressing only PSEN2-APH1A γ-secretase (APP-C99-GFP reporter); assay type: cell-based; conditions: 8 h, Beerse site unless otherwise indicated, read-out: IC50, Aβ40 peptides
T5 construct: expressed in transfected cells; host or cells: Psen1/2 double KO/Aph1ABC triple KO MEFs, pMSCV retroviral PSEN-IRES-APH1
From the text: as §1
as §2, with “Four different combinations were made: PSEN1 and APH1AL, PSEN1 and APH1B, PSEN2 and APH1AL, and PSEN2 and APH1B. These cell lines were transduced with pMSCV viral vectors (Clontech) expressing APP-C99-GFP-puromycin. After puromycin selection (5 μg/ml), GFP-positive cells were selected through FACS sorting. For the alanine mutagenesis experiment, pMSCV PSEN1-APH1A viral vectors were generated by using a long PCR-based QuikChange strategy (Stratagene). Stable cell lines without clonal selection were generated for each mutant as described above. All cell lines were regularly tested for the absence of mycoplasma and used for maximum 20 passages in culture.” left out
as §3

[7] = biological target: T6, PSEN2-APH1B γ-secretase complex (Homo sapiens, UniProt P49810+Q8WW43+Q92542+Q9NZ42); assay: Aβ40 secretion by MEF cell line expressing only PSEN2-APH1B γ-secretase (APP-C99-GFP reporter); assay type: cell-based; conditions: 8 h, Beerse site unless otherwise indicated, read-out: IC50, Aβ40 peptides
T6 construct: expressed in transfected cells; host or cells: Psen1/2 double KO/Aph1ABC triple KO MEFs, pMSCV retroviral PSEN-IRES-APH1
From the text: as §1, §5, §3

[8] = tested on: PSEN1–γ-secretase complex compared to PSEN2–γ-secretase complexes; conditions: cell-free in vitro assays; cited from earlier work
[9] = tested on: WT and PSEN2-deficient mice; design: method as in PMID 23197721; conditions: cited from earlier work
[10] = tested on: T cell acute lymphoblastic leukemia; design: method as in PMID 31142678; conditions: mice; cited from earlier work
APP or Notch processing = conditions: in vitro; cited from earlier work
[11] = only the 95% CI is given, read-out: 95% CI of IC50
[12] = 8 h, Beerse site unless otherwise indicated, read-out: IC50, Aβ40 peptides

IC50 [1, 11]: 1.21 to 2.37 µM | IC50 [2, 11]: 0.597 to 3.86 µM | IC50 [3]: 0.992 to 2.6 µM | IC50 [4]: 2.22 to 5.74 µM
SMILES: CC(C)C[C@H](NC(=O)[C@H](Cc1ccccc1)C[C@@H](O)[C@H](Cc1ccccc1)NC(=O)OC(C)(C)C)C(=O)N[C@@H](Cc1ccccc1)C(N)=O [L-685,458]

IC50 [2, 12]: 0.0245 µM
SMILES: O=C1NCCCCC1N(Cc1ccc(Br)cc1)S(=O)(=O)c1ccc(Cl)cc1 (stereo not shown) [ELN-318463]
selectivity for PSEN1 complexes versus PSEN2 complexes [5]: 70 fold

SMILES: O=S(=O)(NC1CCC(c2cc(F)ccc2F)(S(=O)(=O)c2ccc(Cl)cc2)CC1)C(F)(F)F (stereo not drawn) [MRK-560, N-[cis-4-[(4-chlorophenyl)sulfonyl]-4-(2,5-difluorophenyl)cyclohexyl]-1,1,1-trifluoromethanesulfonamide]
IC50 [1, 12]: 0.0014 µM | IC50 [2, 12]: 0.00042 µM and 0.0004 µM | IC50 [6]: > 0.13 µM | IC50 [7]: > 0.13 µM | selectivity PSEN1–APH1B versus PSEN1–APH1A ([5]; MEF cell lines): 4 fold | selectivity for PSEN1 complexes versus PSEN2 complexes [8]: 5 fold | selectivity toward the PSEN1–γ-secretase complex compared to PSEN2–γ-secretase complexes [8]: 37 fold | Aβ levels ([9]; WT and PSEN2-deficient mice): potently and dose dependently reduced Aβ levels | safety of treatment ([9]; WT mice): safe | Notch-related toxicity ([9]; mice genetically deficient for PSEN2): caused major Notch-related toxicity | protection in T cell acute lymphoblastic leukemia [10]: protected the mice | selectivity versus APP or Notch processing (APP or Notch processing): does not show selectivity

SMILES: CC(C)[C@H](O)C(=O)N[C@@H](C)C(=O)N[C@@H]1C(=O)N(C)CCc2ccccc21 [semagacestat]
IC50 [2, 12]: 0.0249 µM | selectivity for PSEN1 complexes versus PSEN2 complexes [5]: 6–13 fold | selectivity toward the different γ-secretase complexes ([5]; four MEF cell lines): < 10 fold

IC50 [2, 12]: 0.0179 µM
SMILES: O=S(=O)(N[C@H](CO)C(C(F)(F)F)C(F)(F)F)c1ccc(Cl)s1 [begacestat]
